In the NIST ThermoML archive (doi:10.1021/acs.jced.8b00037):

Experiment: molar heat capacity at saturation pressure
Settings: Liquid, Vacuum adiabatic calorimetry

COC [dimethyl ether]
Settings | molar heat capacity [J/K/mol]
133.47 K | 99.41
136.11 K | 98.99
138.75 K | 99.09
141.37 K | 98.75
143.97 K | 98.64
146.56 K | 98.99
149.14 K | 99.23
151.7 K | 98.99
154.26 K | 98.77
156.8 K | 98.65
159.33 K | 98.43
161.84 K | 98.67
164.35 K | 98.6
166.84 K | 98.46
169.32 K | 98.32
171.79 K | 98.39
174.26 K | 98.44
176.71 K | 98.47
179.15 K | 98.73
181.58 K | 98.78
184 K | 98.54
186.41 K | 98.8
188.82 K | 98.98
191.21 K | 98.9
193.6 K | 99.11
195.98 K | 98.99
198.36 K | 99.02
200.73 K | 99.09
203.08 K | 99.08
205.44 K | 99.32
207.79 K | 99.89
210.13 K | 100.15
212.46 K | 99.96
214.79 K | 100.15
217.12 K | 100.26
219.43 K | 100.09
221.74 K | 100.12
224.04 K | 100.21
226.34 K | 100.65
228.64 K | 101.1
230.92 K | 101.1
233.21 K | 101.41
235.49 K | 101.75
237.76 K | 101.68
240.03 K | 101.94
242.31 K | 102.15
244.57 K | 102.6
246.84 K | 102.48
249.11 K | 103.29
251.38 K | 102.81
253.64 K | 103
255.9 K | 103.44
258.16 K | 103.81
260.42 K | 104.08
262.68 K | 104.75
264.94 K | 105.51
267.2 K | 105.91
269.47 K | 106.42
271.72 K | 106.14
273.98 K | 106.27
276.24 K | 107.11
278.5 K | 108
280.77 K | 108.08
283.02 K | 108.35
285.29 K | 108.89
287.55 K | 109.42
289.82 K | 109.46
292.08 K | 110
294.36 K | 110.71
296.63 K | 110.49
298.9 K | 111.38
301.19 K | 111.57
303.45 K | 112.35
305.74 K | 112.73
308.02 K | 113.5
310.3 K | 114.89
312.58 K | 115.6
314.87 K | 116.12
317.16 K | 116.12
319.44 K | 117.62
323.96 K | 119.09
326.26 K | 120.03
328.57 K | 120.51
330.88 K | 121.43
333.2 K | 121.96
335.54 K | 122.78
337.89 K | 122.8
340.24 K | 124.08
342.62 K | 124.9
345 K | 125.19
